{"source": "patent US20200323849A1", "about": "“COMBINATIONS OF HISTONE DEACETYLASE INHIBITORS AND IMMUNOMODULATORY DRUGS” (Acetylon Pharmaceuticals, Inc., priority 2013, published 2020)", "key": {"[1]": {"tested_on": "MM.1s myeloma cells", "experiment": "Apoptosis by flow cytometry, Annexin V / propidium iodide (MM.1s)", "assay_type": "cell-based", "settings": "5 and 7 days, Compound A 2 μM, Lenalidomide 2 μM, Pomalidomide 1 μM", "description": "(§1) H929 (FIGS. 11A & 11B) or MM.1s (FIGS. 11C & 11D) myeloma cells were exposed to drug for 5 (FIGS. 11A & 11C) and 7 (FIGS. 11B & 11D) days, and apoptosis was assessed by flow cytometry by measuring Annexin V binding and cellular permeability to propidium iodide. The relative fraction of cells that were live, in early apoptosis, in late apoptosis, or dead was then determined."}, "[2]": {"experiment": "Compound A monotherapy clinical trial (phase 1a)", "quoted_text": "(§4) In Part A of the trial, patients were treated with escalating doses of oral Compound A in combination with a standard dose and schedule of lenalidomide and dexamethasone on days 1-5 and 8-12 of a 28 day cycle. For example, the patients in cohort 1 received 40 mg of Compound A, 15 mg of Compound E, and 40 mg of dexamethasone per day; the patients in cohort 2 received 40 mg of Compound A, 25 mg of Compound E, and 40 mg of dexamethasone per day; the patients in cohort 3 received 80 mg of Compound A, 25 mg of Compound E, and 40 mg of dexamethasone per day; the patients in cohort 4 received 160 mg of Compound A, 25 mg of Compound E, and 40 mg of dexamethasone per day; and the patients in cohort 5 received 240 mg of Compound A, 25 mg of Compound E, and 40 mg of dexamethasone per day. […] For example, the patients in cohort 6 received 160 mg of Compound A, 25 mg of Compound E, and 40 mg of dexamethasone per day; the patients in cohort 7 received 160 mg of Compound A, 25 mg of Compound E, and 40 mg of dexamethasone twice daily; and the patients in cohort 8 received 240 mg of Compound A, 25 mg of Compound E, and 40 mg of dexamethasone twice daily. Peripheral blood samples were obtained for PK and PD analysis at specified time points."}, "[3]": {"experiment": "Phase 1b clinical trial: PK in peripheral blood samples", "quoted_text": "as §4"}, "[4]": {"tested_on": "H929 cells", "experiment": "Immunoblot in H929 cells", "assay_type": "cell-based"}, "[5]": {"tested_on": "MM.1s myeloma cells", "experiment": "Cell cycle distribution by flow cytometry, propidium iodide (MM.1s)", "assay_type": "cell-based", "settings": "3 and 5 days, Compound A 2 μM, Lenalidomide 2 μM, Pomalidomide 1 μM", "description": "(§2) H929 (FIGS. 10A & 10B) or MM.1s (FIGS. 10C & 10D) myeloma cells were exposed to drug for 3 (FIGS. 10A & 10C) and 5 (FIGS. 10B & 10D) days and cell cycle distribution was assessed by flow cytometry via incorporation of propidium iodide. The relative fraction of cells in each stage of the cell cycle (GO/G1, S, and G2/M) as well as the fraction of dead cells (Sub G1) was then estimated."}, "[6]": {"settings": "human, in vivo", "quoted_text": "as §4"}, "[7]": {"tested_on": "acetylated tubulin (a marker of HDAC6 inhibition)", "experiment": "Phase 1b PD: acetylated tubulin in PBMC", "assay_type": "in vivo, human", "settings": "at ≥80 mg Compound A", "quoted_text": "as §4"}, "[8]": {"tested_on": "H929 myeloma cells", "experiment": "Cell cycle distribution by flow cytometry, propidium iodide (H929)", "assay_type": "cell-based", "settings": "H929, 3 and 5 days; Compound A 2 μM, Lenalidomide 2 μM, Pomalidomide 1 μM", "description": "as §2"}, "[9]": {"tested_on": "acetylated histones (a marker of class 1 HDAC inhibition)", "experiment": "Phase 1b PD: acetylated histones in PBMC", "assay_type": "in vivo, human", "settings": "at ≥80 mg Compound A", "quoted_text": "as §4"}, "[10]": {"tested_on": "H929 myeloma cells", "experiment": "Apoptosis by flow cytometry, Annexin V / propidium iodide (H929)", "assay_type": "cell-based", "settings": "H929, 5 and 7 days; Compound A 2 μM, Lenalidomide 2 μM, Pomalidomide 1 μM", "description": "as §1"}, "[11]": {"tested_on": "HDAC1, 2, and 3", "experiment": "HDAC enzyme assays (HDAC1, 2, 3)", "assay_type": "biochemical", "description": "(§3) Compounds for testing were diluted in DMSO to 50 fold the final concentration and a ten point three fold dilution series was made. The compounds were diluted in assay buffer (50 mM HEPES, pH 7.4, 100 mM KCl, 0.001% Tween-20, 0.05% BSA, 20 μM TCEP) to 6 fold their final concentration. The HDAC enzymes (purchased from BPS Biosciences) were diluted to 1.5 fold their final concentration in assay buffer. The tripeptide substrate and trypsin at 0.05 μM final concentration were diluted in assay buffer at 6 fold their final concentration. The final enzyme concentrations used in these assays were 3.3 ng/ml (HDAC1), 0.2 ng/ml (HDAC2), 0.08 ng/ml (HDAC3) and 2 ng/ml (HDAC6). The final substrate concentrations used were 16 μM (HDAC1), 10 μM (HDAC2), 17 μM (HDAC3) and 14 μM (HDAC6). Five μl of compound and 20 μl of enzyme were added to wells of a black, opaque 384 well plate in duplicate. Enzyme and compound were incubated together at room temperature for 10 minutes. Five μl of substrate was added to each well, the plate was shaken for 60 seconds and placed into a Victor 2 microtiter plate reader. The development of fluorescence was monitored for 60 min and the linear rate of the reaction was calculated. The IC50 was determined using Graph Pad Prism by a four parameter curve fit."}, "[12]": {"target": "T1, HDAC6 (Homo sapiens, UniProt Q9UBN7)", "T1 construct": "purchased BPS Biosciences", "T1 sequence (Q9UBN7 1-1215)": "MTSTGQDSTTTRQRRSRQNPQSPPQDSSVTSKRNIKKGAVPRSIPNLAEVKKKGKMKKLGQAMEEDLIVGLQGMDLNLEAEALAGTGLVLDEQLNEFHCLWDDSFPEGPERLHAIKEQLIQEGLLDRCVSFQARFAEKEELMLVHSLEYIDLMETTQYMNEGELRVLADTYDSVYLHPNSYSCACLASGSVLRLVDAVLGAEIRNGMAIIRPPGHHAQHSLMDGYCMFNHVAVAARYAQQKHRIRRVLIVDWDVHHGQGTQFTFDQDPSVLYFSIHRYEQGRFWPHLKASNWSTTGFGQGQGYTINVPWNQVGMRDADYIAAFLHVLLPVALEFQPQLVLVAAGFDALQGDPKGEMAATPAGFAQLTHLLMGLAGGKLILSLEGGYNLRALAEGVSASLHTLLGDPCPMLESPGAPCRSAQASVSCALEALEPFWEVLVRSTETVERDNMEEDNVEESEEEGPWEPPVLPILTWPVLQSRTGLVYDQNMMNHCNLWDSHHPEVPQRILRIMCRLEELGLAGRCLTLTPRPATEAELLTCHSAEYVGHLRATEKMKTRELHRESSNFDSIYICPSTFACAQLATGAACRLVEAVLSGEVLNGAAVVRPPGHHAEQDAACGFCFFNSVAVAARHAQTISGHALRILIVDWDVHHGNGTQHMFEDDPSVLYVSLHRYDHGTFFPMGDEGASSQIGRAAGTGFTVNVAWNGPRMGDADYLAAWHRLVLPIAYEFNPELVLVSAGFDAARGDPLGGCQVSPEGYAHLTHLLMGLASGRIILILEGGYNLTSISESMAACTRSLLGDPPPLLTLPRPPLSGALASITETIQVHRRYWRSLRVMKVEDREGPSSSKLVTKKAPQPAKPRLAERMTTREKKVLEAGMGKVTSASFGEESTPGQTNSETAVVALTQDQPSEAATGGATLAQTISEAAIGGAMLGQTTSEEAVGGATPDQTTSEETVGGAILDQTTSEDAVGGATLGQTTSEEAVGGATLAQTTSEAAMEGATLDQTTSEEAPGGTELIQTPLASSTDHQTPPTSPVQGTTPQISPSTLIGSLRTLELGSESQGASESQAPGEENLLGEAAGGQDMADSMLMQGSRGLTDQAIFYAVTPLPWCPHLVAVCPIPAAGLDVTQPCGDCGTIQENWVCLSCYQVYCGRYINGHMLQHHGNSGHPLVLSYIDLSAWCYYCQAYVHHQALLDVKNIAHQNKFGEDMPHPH", "experiment": "HDAC enzyme assays (HDAC6 selectivity)", "assay_type": "biochemical", "description": "as §3, with “Five μl of compound and 20 μl of enzyme were added to wells of a black, opaque 384 well plate in duplicate.” left out"}}}
{"smiles": "O=C(CCCCCCNC(=O)c1cnc(N(c2ccccc2)c2ccccc2)nc1)NO", "note": "[Compound A, 2-(diphenylamino)-N-(7-(hydroxyamino)-7-oxoheptyl) pyrimidine-5-carboxamide]", "values": [{"measurement": "percentage of apoptotic cells", "setting": "[1]", "result": "small increase in apoptosis"}, {"measurement": "dose well-tolerated as a monotherapy (maximum dose examined)", "setting": "[2]", "result": "up to 360 mg/day"}, {"measurement": "Maximal levels of Compound A", "setting": "[3]; at ≥80 mg, coadministered with lenalidomide and dexamethasone", "result": "≥ 1", "unit": "µM"}, {"measurement": "PK for Compound A versus analogous dose levels in phase 1a monotherapy", "setting": "[3]; coadministration of lenalidomide", "result": "similar"}, {"measurement": "acetylation of α-tubulin (inhibition of HDAC6)", "setting": "[4]", "result": "hyperacetylation"}, {"measurement": "cell cycle distribution (G0/G1, S, G2/M)", "setting": "[5]", "result": "small reduction"}, {"measurement": "dose limiting toxicities (DLTs)", "setting": "[6]", "result": "not observed"}, {"measurement": "increase in acetylated tubulin", "setting": "[7]", "result": "> 2", "unit": "×"}, {"measurement": "cell cycle distribution (G0/G1, S, G2/M)", "setting": "[8]", "result": "small reduction"}, {"measurement": "increase in acetylated histones", "setting": "[9]", "result": "minimal increase"}, {"measurement": "percentage of apoptotic cells", "setting": "[10]", "result": "small increase in apoptosis"}]}
{"smiles": "O=C(CCCCCCNC(=O)c1cnc(N(c2ccccc2)c2ccccc2Cl)nc1)NO", "note": "[Compound B, 2-((2-chlorophenyl)(phenyl)amino)-N-(7-(hydroxyamino)-7-oxoheptyl)pyrimidine-5-carboxamide]", "values": [{"measurement": "inhibition of HDAC1, 2, and 3", "setting": "[11]", "result": "low level inhibition"}]}
{"smiles": "O=C(NO)c1cnc(NC2(c3cccc(F)c3)CCCCC2)nc1", "note": "[Compound C, 2-((1-(3-fluorophenyl)cyclohexyl)amino)-N-hydroxypyrimidine-5-carboxamide]", "values": [{"measurement": "selective for HDAC6 over class I HDAC's", "setting": "[12]", "result": "more than 300 fold"}]}
